Measured values taken from patent US7514445B2, “Heteroaryl amines as glycogen synthase kinase 3β inhibitors (GSK3 inhibitors)” (Janssen Pharmaceutica N.V., priority 2001, dated 2009).

Target: GSK3β (Homo sapiens, UniProt P49841)
Experiment: GSK3beta assay (SPA, phosphorylation of biotinylated phosphorylated CREB peptide, ATP-P33)
Assay type: biochemical
Conditions: -log IC50 (M); 25° C., 19 nM GSK3β, 5 μM biotinylated phosphorylated CREB peptide, 1 μM ATP, one hour
Method: GSK3beta assays were performed at 25° C. in a 100 μl reaction volume of 25 mM Tris (pH 7.4) containing 10 mM MgCl2, 1 mM DTT, 0.1 mg/ml BSA, 5% glycerol and containing 19 nM GSK3β, 5 μM biotinylated phosphorylated CREB peptide, 1 μM ATP, 2 nM ATP-P^33 and a suitable amount of a test compound of formula (I) or (I′). After one hour, the reaction was terminated by adding 70 μl of Stop mix (1 mM ATP, 18 mg/ml streptavidin coated PVT SPA bead pH 11.0). The beads to which the phosphorylated CREB peptide is attached were allowed to settle for 30 minutes and the radioactivity of the beads was counted in a microtiterplate scintillation counter and compared with the results obtained in a control experiment (without the presence of a test compound) in order to determine the percentage of GSK3β, inhibition. The IC50 value, i.e. the concentration (M) of the test compound at which 50% of GSK3, is inhibited, was calculated from the dose response curve obtained by performing the above-described GSK3β assay in the presence of different amounts of the test compound.
Table 5 lists pIC50 values (-log IC50 (M)) obtained in the above-described test for the present compounds.

Sequence of GSK3β (P49841 whole entry, species assumed): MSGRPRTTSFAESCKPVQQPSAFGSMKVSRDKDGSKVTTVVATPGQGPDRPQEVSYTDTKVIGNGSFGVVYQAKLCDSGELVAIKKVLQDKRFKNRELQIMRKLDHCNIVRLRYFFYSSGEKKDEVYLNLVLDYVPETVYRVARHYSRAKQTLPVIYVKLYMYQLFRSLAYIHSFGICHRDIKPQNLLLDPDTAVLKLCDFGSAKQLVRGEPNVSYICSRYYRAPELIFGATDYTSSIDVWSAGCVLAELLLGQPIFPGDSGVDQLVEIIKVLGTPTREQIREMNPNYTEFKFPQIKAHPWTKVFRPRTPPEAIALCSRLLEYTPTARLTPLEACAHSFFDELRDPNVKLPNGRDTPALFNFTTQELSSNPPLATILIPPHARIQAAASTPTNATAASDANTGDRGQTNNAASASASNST

| IC50 | SMILES |
| --- | --- |
| 1.91e-06 M | CCN1CCCC1CNc1ccnc(Nc2ccc(C#N)cc2)n1 (stereo not shown) [Compound 25] |
| 5.25e-07 M | Cc1cc(C)c(Nc2ccnc(Nc3ccc4[nH]ncc4c3)n2)c(C)c1 [Compound 2, N^2-(1H-indazol-5-yl)-N^4-(2,4,6-trimethylphenyl)-2,4-pyrimidinediamine] |
| 4.37e-06 M | CC1(C)OCC(CNc2ccnc(Nc3ccc(C#N)cc3)n2)O1 (stereo not shown) [Compound 24] |
| 1.82e-06 M | N#Cc1ccc(Nc2nccc(NCc3cccs3)n2)cc1 [Compound 22, 4-[4-[(thiophen-2-ylmethyl)-amino]-pyrimidin-2-ylamino]-benzonitrile] |
| 9.77e-08 M | Cn1ccnc1-c1ccnc(Nc2ccc(C#N)c(OCc3ccccc3)c2)n1 [Compound 6, 4-[[4-(1-methyl-1H-imidazol-2-yl)-2-pyrimidinyl]amino]-2-(phenylmethoxy)-benzonitrile] |
| 1.55e-06 M | N#Cc1ccc(Nc2nccc(NCc3ccco3)n2)cc1 [Compound 26, 4-[4-[(furan-2-ylmethyl)-amino]-pyrimidin-2-ylamino]-benzonitrile] |
| 3.63e-06 M | Cc1cc(C)c(Nc2ccnc(Nc3ccc4ncccc4c3)n2)c(C)c1 [Compound 20, N^2-quinolin-6-yl-N-4-(2,4,6-trimethyl-phenyl)-2,4-pyrimidinediamine] |
| 7.76e-08 M | Cn1ccnc1-c1ccnc(Nc2ccc(C#N)cc2)n1 [Compound 33, 4-[[4-(1-methyl-1H-imidazol-2-yl)-2-pyrimidinyl]amino]-benzonitrile] |
| 5.01e-06 M | Cc1cc(C)c(Nc2ccnc(Nc3ccc4c(c3)OCO4)n2)c(C)c1 [Compound 17, N^2-benzo[1,3]dioxol-5-yl-N^4(2,4,6-trimethyl-phenyl)-2,4-pyrimidinediamine] |
| 2.95e-06 M | N#Cc1ccc(Nc2nccc(C(=O)N3CCNCC3)n2)cc1OCc1ccccc1 [Compound 4] |
